Article PMC7721803, “Development of a penem antibiotic against Mycobacteroides abscessus” (Communications Biology, 2020)
Values after ≈ are worked out from the molar mass of the structure shown. Like-named read-outs stand apart in the source and are kept apart here.

Key:
[1] = Mouse plasma protein binding assay (rapid equilibrium dialysis); format: in vitro ADME; conditions: mouse plasma/serum, 4 h
Protocol: The plasma protein binding assay was performed with a Rapid Equilibrium Dialysis (RED) device (Thermo Scientific, Rockford, IL) according to the manufacturer’s directions and as previously described. […] Aliquots were taken at 30 min and 4 h, diluted with phosphate-buffered saline (PBS), and quenched in 75 µL cold acetonitrile/water (9:1) + 0.1% formic acid mixture containing 5 µM internal standard 1,8-diazabicyclo(5.4.0)undec-7-ene (DBU). The resulting mixture was incubated at −80 °C for 30 min and subjected to centrifugation at 20,000 × g for 20 min.

M. abscessus ATCC 19977 = format: cell-based, Mycobacteroides abscessus
in vivo = experiment: in vivo; design: species or system BALB/c mice; conditions: mouse, sc
Protocol: (§1) All procedures involving mice were approved by the Animal Care and Use Committee of Johns Hopkins University. […] Blood was sampled from three mice per group per time point by mandibular vein puncture or cardiac puncture at the following time points: 5, 15, 30, 60, 120, and 240 min post-dose. Plasma was separated in heparin-containing tubes and frozen. […] Concentration–time data were analyzed by standard non-compartmental and compartmental techniques using WinNonlin (version 7.0; Pharsight, Mountain View, CA). A one-compartmental model was used to perform simulations to predict the plasma concentration–time profile after subcutaneous doses of 150, 300, and 450 mg/kg, alone and in combination with probenecid. A plasma free drug fraction of 2% of the total drug concentration was included in the simulations.

M. abscessus = experiment: MIC by broth dilution method (Middlebrook 7H9); format: cell-based, Mycobacteroides abscessus
[2] = PK simulation with one-compartmental model (plasma-free drug, fT>MIC); design: species or system BALB/c mice
Protocol: as §1, with “University. T405 was dissolved in PBS.” for “University.”, “A one-compartmental model was used to perform simulations to predict the plasma concentration–time profile after subcutaneous doses of 150, 300, and 450 mg/kg, alone and in combination with probenecid.” left out

## C[C@@H](O)C1C(=O)N2C(C(=O)O)=C(SC3CN(C4=NCCS4)C3)SC12 (stereo in doubt) [T405]
[1]
  blood plasma binding (bound): 98%
M. abscessus ATCC 19977; T405 2 µg/mL with vs without avibactam 256 µg/mL
  Reduction in the frequency of resistance on addition of avibactam: ~3 log
M. abscessus ATCC 19977; T405 at MIC (2 µg/mL) combined with avibactam at its MIC of 256 µg/mL
  Resistance frequency: 5.8 × 10^−9
M. abscessus ATCC 19977; drug alone at its individual MIC (T405 2 µg/mL, imipenem 8 µg/mL)
  Resistance frequency: 2.0 × 10^−6
M. abscessus ATCC 19977; each at its MIC
  Frequency of resistance higher than that for imipenem: approximately 1 log
In vivo; female, BALB/c
  half-life: 1.26 h
In vivo; female, BALB/c, 25 mg/kg
  AUC(0-t): 205 µg·h/mL
  Cmax: 164 µg/mL
  half-life: 0.82 h
In vivo
  Half-life, effect of co-administration with cilastatin: not affected
M. abscessus; 20 clinical M. abscessus strains
  strains exhibiting MICs of ≤4 µg/mL: 17/20
M. abscessus; ATCC 19977, avibactam 4 µg/mL
  MIC of T405 with avibactam: 0.5 µg/mL
M. abscessus; Mycobacteroides abscessus
  MIC50: 2 µg/mL (≈ 5.16 µM)
  MIC90: 8 µg/mL (≈ 20.6 µM)
M. abscessus; Mycobacteroides abscessus, ATCC19977, reference strain ATCC 19977
  MIC: 2 µg/mL (≈ 5.16 µM)
M. abscessus; Mycobacteroides abscessus, clinical isolate 1N
  MIC: 2 µg/mL (≈ 5.16 µM)
M. abscessus; Mycobacteroides abscessus, clinical isolate 2N
  MIC: 2 µg/mL (≈ 5.16 µM)
M. abscessus; Mycobacteroides abscessus, clinical isolate 3N
  MIC: 2 µg/mL (≈ 5.16 µM)
M. abscessus; Mycobacteroides abscessus, clinical isolate 4N
  MIC: 1 µg/mL (≈ 2.58 µM)
M. abscessus; Mycobacteroides abscessus, clinical isolate 5N
  MIC: 1 µg/mL (≈ 2.58 µM)
M. abscessus; Mycobacteroides abscessus, clinical isolate 8N
  MIC: 4 µg/mL (≈ 10.3 µM)
M. abscessus; Mycobacteroides abscessus, clinical isolate 11N
  MIC: 8 µg/mL (≈ 20.6 µM)
M. abscessus; Mycobacteroides abscessus, clinical isolate 13N
  MIC: 1 µg/mL (≈ 2.58 µM)
M. abscessus; Mycobacteroides abscessus, clinical isolate 14N
  MIC: 8 µg/mL (≈ 20.6 µM)
M. abscessus; Mycobacteroides abscessus, clinical isolate 202
  MIC: 2 µg/mL (≈ 5.16 µM)
M. abscessus; Mycobacteroides abscessus, clinical isolate 203
  MIC: 2 µg/mL (≈ 5.16 µM)
M. abscessus; Mycobacteroides abscessus, clinical isolate 204
  MIC: 8 µg/mL (≈ 20.6 µM)
M. abscessus; Mycobacteroides abscessus, clinical isolate 214
  MIC: 1 µg/mL (≈ 2.58 µM)
M. abscessus; Mycobacteroides abscessus, clinical isolate 215
  MIC: 2 µg/mL (≈ 5.16 µM)
M. abscessus; Mycobacteroides abscessus, clinical isolate JH1801
  MIC: 1 µg/mL (≈ 2.58 µM)
M. abscessus; Mycobacteroides abscessus, clinical isolate JH1802
  MIC: 4 µg/mL (≈ 10.3 µM)
M. abscessus; Mycobacteroides abscessus, clinical isolate JHH2
  MIC: 4 µg/mL (≈ 10.3 µM)
M. abscessus; Mycobacteroides abscessus, clinical isolate JHH4
  MIC: 2 µg/mL (≈ 5.16 µM)
M. abscessus; Mycobacteroides abscessus, clinical isolate JHH9
  MIC: 4 µg/mL (≈ 10.3 µM)
M. abscessus; Mycobacteroides abscessus, clinical isolate JHHKB
  MIC: 2 µg/mL (≈ 5.16 µM)
M. abscessus; avibactam 4 µg/mL, ATCC 19977 and 10 clinical isolates
  Reduction of T405 MIC by addition of avibactam: two-fold (7 strains) or fourfold (2 strains)
[2]; 25mg/kg alone, 0.083 h
  simulated plasma-free T405 concentration: 3120 ng/mL
[2]; 25mg/kg alone, 0.25 h
  simulated plasma-free T405 concentration: 3273.33 ng/mL
[2]; 25mg/kg alone, 0.5 h
  simulated plasma-free T405 concentration: 2446 ng/mL
[2]; 25mg/kg alone, 1 h
  simulated plasma-free T405 concentration: 1212.67 ng/mL
[2]; 25mg/kg alone, 2 h
  simulated plasma-free T405 concentration: 526 ng/mL
[2]; 25mg/kg alone, 4 h
  simulated plasma-free T405 concentration: 131.67 ng/mL
[2]; 25mg/kg alone, 6 h
  simulated plasma-free T405 concentration: 29.76 ng/mL
[2]; 25mg/kg alone, 8 h
  simulated plasma-free T405 concentration: 6.87 ng/mL
[2]; 25mg/kg alone, 10 h
  simulated plasma-free T405 concentration: 1.58 ng/mL
[2]; 25mg/kg alone, 12 h
  simulated plasma-free T405 concentration: 0.37 ng/mL
[2]; 25mg/kg alone, 16 h
  simulated plasma-free T405 concentration: 0.02 ng/mL
[2]; 25mg/kg alone, 20 h
  simulated plasma-free T405 concentration: 0 ng/mL
[2]; 25mg/kg alone, 24 h
  simulated plasma-free T405 concentration: 0 ng/mL
[2]; 150mg/kg alone, 0.083 h
  simulated plasma-free T405 concentration: 18720 ng/mL
[2]; 150mg/kg alone, 0.25 h
  simulated plasma-free T405 concentration: 19640 ng/mL
[2]; 150mg/kg alone, 0.5 h
  simulated plasma-free T405 concentration: 14676 ng/mL
[2]; 150mg/kg alone, 1 h
  simulated plasma-free T405 concentration: 7276 ng/mL
